Measured values from BigSolDB 2.1.

O=C(O)COc1ccc(Cl)cc1Cl
solubility (mole fraction)
Conditions | 278.15 K | 283.15 K | 288.15 K | 293.15 K | 298.15 K | 303.15 K | 308.15 K | 313.15 K | 318.15 K | 323.15 K
in 2-butanone | 0.0937 | 0.103 | 0.112 | 0.123 | 0.134 | 0.144 | 0.156 | 0.169 | 0.184 | 0.201
in MTBE | 0.087 | 0.0961 | 0.106 | 0.116 | 0.126 | 0.137 | 0.148 | 0.161 | 0.175 | 0.19
in acetone | 0.107 | 0.116 | 0.127 | 0.137 | 0.15 | 0.163 | 0.176 | 0.191 | 0.205 | 0.222
in acetonitrile | 0.0178 | 0.0246 | 0.0306 | 0.0401 | 0.0499 | 0.0572 | 0.0672 | 0.078 | 0.0888 | 0.103
in ethanol | 0.0654 | 0.0797 | 0.0975 | 0.117 | 0.141 | 0.167 | 0.192 | 0.223 | 0.255 | 0.292
in ethyl acetate | 0.0548 | 0.0622 | 0.0703 | 0.0798 | 0.0894 | 0.101 | 0.113 | 0.126 | 0.14 | 0.155
in isobutanol | 0.0317 | 0.0402 | 0.0508 | 0.0627 | 0.0778 | 0.0933 | 0.112 | 0.135 | 0.161 | 0.19
in isobutyl acetate | 0.0365 | 0.0427 | 0.0494 | 0.0574 | 0.0657 | 0.0747 | 0.0846 | 0.0958 | 0.11 | 0.128
in isopropanol | 0.0424 | 0.0525 | 0.0646 | 0.0783 | 0.0942 | 0.113 | 0.132 | 0.153 | 0.176 | 0.201
in methyl acetate | 0.0602 | 0.0685 | 0.0761 | 0.0846 | 0.0976 | 0.106 | 0.119 | 0.131 | 0.144 | 0.16
in n-butanol | 0.0521 | 0.0644 | 0.079 | 0.0986 | 0.127 | 0.146 | 0.17 | 0.198 | 0.231 | 0.27
in n-butyl acetate | 0.0486 | 0.0535 | 0.0604 | 0.0678 | 0.0749 | 0.0832 | 0.0931 | 0.106 | 0.12 | 0.136
in n-pentanol | 0.0537 | 0.0701 | 0.0866 | 0.107 | 0.131 | 0.155 | 0.182 | 0.211 | 0.243 | 0.281
in n-propanol | 0.0486 | 0.0602 | 0.0731 | 0.0911 | 0.11 | 0.131 | 0.152 | 0.179 | 0.207 | 0.236
in sec-butanol | 0.043 | 0.0535 | 0.0665 | 0.0809 | 0.098 | 0.117 | 0.139 | 0.162 | 0.186 | 0.213
